Laboratory results as given in US10780090B2, “Heteroaryl compounds useful as inhibitors of SUMO activating enzyme” (Millennium Pharmaceuticals, Inc., priority 2014, dated 2020).

Biological target: recombinant human SAE enzyme (Homo sapiens (Human), UniProt Q9UBT2)
Test: SAE HTRF enzyme assay
Type: biochemical
Conditions: for inhibition at 0.111 µM: read-out: Percent Inhibition
Outline: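 Sumoylation of Ubc9-GST by SAE was followed at low ATP (0.5 μM), pH 7.5, 24° C. for 105 min. Product was detected by HTRF with antibody pairs against Flag and GST tags.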

[1] = SAE inhibition at compound concentration 0.111 μM
[2] = SAE inhibition, class symbols, legend in nM

Sequence of recombinant human SAE enzyme (Q9UBT2 whole entry): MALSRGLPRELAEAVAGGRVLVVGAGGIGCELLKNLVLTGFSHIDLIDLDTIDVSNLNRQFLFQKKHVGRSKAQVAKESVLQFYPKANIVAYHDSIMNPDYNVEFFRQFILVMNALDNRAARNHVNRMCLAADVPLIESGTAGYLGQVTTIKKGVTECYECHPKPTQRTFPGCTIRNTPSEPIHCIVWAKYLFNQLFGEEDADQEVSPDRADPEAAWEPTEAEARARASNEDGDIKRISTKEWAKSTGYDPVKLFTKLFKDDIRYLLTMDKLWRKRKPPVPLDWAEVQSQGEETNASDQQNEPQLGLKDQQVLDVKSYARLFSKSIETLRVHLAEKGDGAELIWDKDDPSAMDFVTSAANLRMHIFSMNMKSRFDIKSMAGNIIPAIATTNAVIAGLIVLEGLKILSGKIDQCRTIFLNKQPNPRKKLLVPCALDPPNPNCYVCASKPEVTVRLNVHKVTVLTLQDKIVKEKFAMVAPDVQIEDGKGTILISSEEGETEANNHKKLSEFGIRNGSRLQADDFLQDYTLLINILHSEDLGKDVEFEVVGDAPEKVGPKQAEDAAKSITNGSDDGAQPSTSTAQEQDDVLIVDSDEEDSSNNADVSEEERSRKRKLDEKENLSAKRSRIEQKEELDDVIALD
Sequence of recombinant human SAE enzyme (Q9UBE0 whole entry partner): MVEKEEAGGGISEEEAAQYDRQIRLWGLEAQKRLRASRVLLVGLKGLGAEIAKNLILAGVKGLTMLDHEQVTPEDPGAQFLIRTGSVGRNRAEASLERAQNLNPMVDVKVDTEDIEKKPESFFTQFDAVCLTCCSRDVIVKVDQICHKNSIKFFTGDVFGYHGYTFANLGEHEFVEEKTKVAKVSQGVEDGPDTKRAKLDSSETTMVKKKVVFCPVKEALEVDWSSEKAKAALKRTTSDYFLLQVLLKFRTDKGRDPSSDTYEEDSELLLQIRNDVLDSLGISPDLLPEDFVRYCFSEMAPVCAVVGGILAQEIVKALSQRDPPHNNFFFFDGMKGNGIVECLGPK

Row | SMILES | Percent Inhibition (Concentration 0.111 μM) | IC50 (class symbols A/B/C) [nM] | Percent Inhibition [1] [%] | IC50 [2] [nM] | inhibition at 0.111 µM (Concentration 0.111 μM) [%]
1 | CC(O)(c1cccc(Cl)c1)c1csc(C(=O)c2cncnc2NC2CC(O)C(COS(N)(=O)=O)C2)c1 (mixture of isomers) [I-5, [(1R,2S,4R)-4-{[5-({4-[(1R)-1-(3-chlorophenyl)-1-hydroxyethyl]-2-thienyl}carbonyl)pyrimidin-4-yl]amino}-2-hydroxycyclopentyl]methyl sulfamate and [(1R,2S,4R)-4-{[5-({4-[(1S)-1-(3-chlorophenyl)-1-hydroxyethyl]-2-thienyl}carbonyl)pyrimidin-4-yl]amino}-2-hydroxycyclopentyl]methyl sulfamate] | 99 | < 10 |  |  | 
2 | NS(=O)(=O)OCC1CC(Nc2ncncc2C(=O)c2cc(C(O)c3cc(Br)ccc3F)cs2)CC1O (mixture of isomers) [I-19, [(1R,2S,4R)-4-{[5-({4-[(R)-(5-bromo-2-fluorophenyl)(hydroxy)methyl]-2-thienyl}carbonyl)pyrimidin-4-yl]amino}-2-hydroxycyclopentyl]methyl sulfamate and [(1R,2S,4R)-4-{[5-({4-[(S)-(5-bromo-2-fluorophenyl)(hydroxy)methyl]-2-thienyl}carbonyl)pyrimidin-4-yl]amino}-2-hydroxycyclopentyl]methyl sulfamate] | 100 | < 10 |  |  | 
3 | NS(=O)(=O)OC[C@H]1C[C@@H](Nc2ncncc2C(=O)c2cc([C@@H]3OCCc4ccc(Cl)cc43)c(Cl)s2)C[C@@H]1O (single isomer, unassigned) [I-282b, [(1R,2S,4R)-4-{[5-({5-chloro-4-[(1R)-7-chloro-3,4-dihydro-1H-isochromen-1-yl]-2-thienyl}carbonyl)pyrimidin-4-yl]amino}-2-hydroxycyclopentyl]methyl sulfamate or [(1R,2S,4R)-4-{[5-({5-chloro-4-[(1S)-7-chloro-3,4-dihydro-1H-isochromen-1-yl]-2-thienyl}carbonyl)pyrimidin-4-yl]amino}-2-hydroxycyclopentyl]methyl sulfamate] |  |  | 102 | < 10 | 
4 | NS(=O)(=O)OC[C@H]1C[C@@H](Nc2ncncc2C(=O)c2cc(CN3CCN(c4ccccc4)CC3)cs2)C[C@@H]1O [I-241, [(1R,2S,4R)-2-hydroxy-4-{[5-({4-[(4-phenylpiperazin-1-yl)methyl]-2-thienyl}carbonyl)pyrimidin-4-yl]amino}cyclopentyl]methyl sulfamate] |  | 100 to 1000 |  |  | 18
5 | Cc1sc(C(=O)c2cncnc2N[C@@H]2C[C@H](COS(N)(=O)=O)[C@@H](O)C2)cc1C1OCCc2ccc(C(F)(F)F)nc21 (single isomer, unassigned) [I-297a, [(1R,2S,4R)-2-hydroxy-4-{[5-({5-methyl-4-[(8S)-2-(trifluoromethyl)-5,8-dihydro-6H-pyrano[3,4-b]pyridin-8-yl]-2-thienyl}carbonyl)pyrimidin-4-yl]amino}cyclopentyl]methyl sulfamate or [(1R,2S,4R)-2-hydroxy-4-{[5-({5-methyl-4-[(8R)-2-(trifluoromethyl)-5,8-dihydro-6H-pyrano[3,4-b]pyridin-8-yl]-2-thienyl}carbonyl)pyrimidin-4-yl]amino}cyclopentyl]methyl sulfamate] |  |  | 31 | 100 to 1000 | 
6 | NS(=O)(=O)OC[C@H]1C[C@@H](Nc2ncncc2C(=O)c2cc([C@@H]3OCCc4ccc(Cl)nc43)c(Cl)s2)C[C@@H]1O (single isomer, unassigned) [I-276b, [(1R,2S,4R)-4-{[5-({5-chloro-4-[(8S)-2-chloro-5,8-dihydro-6H-pyrano[3,4-b]pyridin-8-yl]-2-thienyl}carbonyl)pyrimidin-4-yl]amino}-2-hydroxycyclopentyl]methyl sulfamate or [(1R,2S,4R)-4-{[5-({5-chloro-4-[(8R)-2-chloro-5,8-dihydro-6H-pyrano[3,4-b]pyridin-8-yl]-2-thienyl}carbonyl)pyrimidin-4-yl]amino}-2-hydroxycyclopentyl]methyl sulfamate] | 101 | < 10 |  |  | 
7 | NS(=O)(=O)OC[C@H]1C[C@@H](Nc2ncncc2C(=O)c2cc(CO)cs2)C[C@@H]1O [I-230, {(1R,2S,4R)-2-hydroxy-4-[(5-{[4-(hydroxymethyl)-2-thienyl]carbonyl}pyrimidin-4-yl)amino]cyclopentyl}methyl sulfamate] |  | 100 to 1000 |  |  | 26
8 | NS(=O)(=O)OC[C@H]1C[C@@H](Nc2ncncc2C(=O)c2ccc(-c3ccccc3Cl)o2)[C@H](O)[C@@H]1O [I-158, [(1R,2R,3S,4R)-4-({5-[5-(2-chlorophenyl)-2-furoyl]pyrimidin-4-yl}amino)-2,3-dihydroxycyclopentyl]methyl sulfamate] |  |  |  |  | 86
9 | Cc1oc(C(=O)c2cncnc2N[C@@H]2C[C@H](COS(N)(=O)=O)[C@@H](O)C2)cc1C1OCCc2ccccc21 (single isomer, unassigned) [I-272b, {(1R,2S,4R)-4-[(5-{4-[(1R)-3,4-dihydro-1H-isochromen-1-yl]-5-methyl-2-furoyl}pyrimidin-4-yl)amino]-2-hydroxycyclopentyl}methyl sulfamate or {(1R,2S,4R)-4-[(5-{4-[(1S)-3,4-dihydro-1H-isochromen-1-yl]-5-methyl-2-furoyl}pyrimidin-4-yl)amino]-2-hydroxycyclopentyl}methyl sulfamate] | 97 | < 10 |  |  | 
10 | Cc1sc(C(=O)c2cncnc2N[C@@H]2C[C@H](COS(N)(=O)=O)[C@@H](O)C2)cc1[C@H](C)c1cccc(Cl)c1 (single isomer, unassigned) [I-135b, [(1R,2S,4R)-4-{[5-({4-[(1R)-1-(3-chlorophenyl)ethyl]-5-methyl-2-thienyl}carbonyl)pyrimidin-4-yl]amino}-2-hydroxycyclopentyl]methyl sulfamate or [(1R,2S,4R)-4-{[5-({4-[(1S)-1-(3-chlorophenyl)ethyl]-5-methyl-2-thienyl}carbonyl)pyrimidin-4-yl]amino}-2-hydroxycyclopentyl]methyl sulfamate] | 95 | < 10 |  |  | 
11 | NS(=O)(=O)OC[C@H]1C[C@@H](Nc2ncncc2C(=O)c2cc([C@@H]3NCc4ccc(Cl)cc43)c(Cl)s2)C[C@@H]1O (single isomer, unassigned) [I-262a, [(1R,2S,4R)-4-{[5-({5-chloro-4-[(1R)-6-chloro-2,3-dihydro-1H-isoindol-1-yl]-2-thienyl}carbonyl)pyrimidin-4-yl]amino}-2-hydroxycyclopentyl]methyl sulfamate or [(1R,2S,4R)-4-{[5-({5-chloro-4-[(1S)-6-chloro-2,3-dihydro-1H-isoindol-1-yl]-2-thienyl}carbonyl)pyrimidin-4-yl]amino}-2-hydroxycyclopentyl]methyl sulfamate] | 98 | < 10 |  |  | 
12 | NS(=O)(=O)OC[C@H]1C[C@@H](Nc2ncncc2C(=O)c2cc(Cn3cnc(Br)c3)cs2)C[C@@H]1O [I-243, [(1R,2S,4R)-4-{[5-({4-[(4-bromo-1H-imidazol-1-yl)methyl]-2-thienyl}carbonyl)pyrimidin-4-yl]amino}-2-hydroxycyclopentyl]methyl sulfamate] |  | 100 to 1000 |  |  | 19
13 | C[C@](O)(c1csc(C(=O)c2cncnc2N[C@@H]2C[C@H](COS(N)(=O)=O)[C@@H](O)C2)c1)c1cccc(Br)n1 (mixture of isomers) [I-54, [(1R,2S,4R)-4-{[5-({4-[(1S)-1-(6-bromopyridin-2-yl)-1-hydroxyethyl]-2-thienyl}carbonyl)pyrimidin-4-yl]amino}-2-hydroxycyclopentyl]methyl sulfamate and [(1R,2S,4R)-4-{[5-({4-[(1R)-1-(6-bromopyridin-2-yl)-1-hydroxyethyl]-2-thienyl}carbonyl)pyrimidin-4-yl]amino}-2-hydroxycyclopentyl]methyl sulfamate] | 99 | < 10 |  |  | 
14 | NS(=O)(=O)OC[C@H]1C[C@@H](Nc2ncncc2C(=O)c2cc(Cn3ccc4ccc(Cl)cc43)cs2)C[C@@H]1O [I-125, [(1R,2S,4R)-4-{[5-({4-[(6-chloro-1H-indol-1-yl)methyl]-2-thienyl}carbonyl)pyrimidin-4-yl]amino}-2-hydroxycyclopentyl]methyl sulfamate] |  | < 10 |  |  | 97
15 | Cc1sc(C(=O)c2cncnc2N[C@@H]2C[C@H](COS(N)(=O)=O)[C@@H](O)C2)cc1[S@+]([O-])c1cccc(Cl)c1.Cc1sc(C(=O)c2cncnc2N[C@@H]2C[C@H](COS(N)(=O)=O)[C@@H](O)C2)cc1[S@@+]([O-])c1cccc(Cl)c1 (mixture of isomers) [I-28, [(1R,2S,4R)-4-{[5-({4-[(R)-(3-chlorophenyl)sulfinyl]-5-methyl-2-thienyl}carbonyl)pyrimidin-4-yl]amino}-2-hydroxycyclopentyl]methyl sulfamate and [(1R,2S,4R)-4-{[5-({4-[(S)-(3-chlorophenyl)sulfinyl]-5-methyl-2-thienyl}carbonyl)pyrimidin-4-yl]amino}-2-hydroxycyclopentyl]methyl sulfamate] | 98 | < 10 |  |  | 
16 | Cc1sc(C(=O)c2cncnc2N[C@@H]2C[C@H](COS(N)(=O)=O)[C@@H](O)C2)cc1Sc1cccc(C(F)(F)F)c1 [I-145, [(1R,2S,4R)-2-hydroxy-4-({5-[(5-methyl-4-{[3-(trifluoromethyl)phenyl]sulfanyl}-2-thienyl)carbonyl]pyrimidin-4-yl}amino)cyclopentyl]methyl sulfamate] |  | < 10 |  |  | 93
17 | NS(=O)(=O)OC[C@H]1C[C@@H](Nc2ncncc2C(=O)c2cc([C@H](O)c3cccc(Cl)c3)cs2)C[C@@H]1O (single isomer, unassigned) [I-4b, [(1R,2S,4R)-4-{[5-({4-[(R)-(3-chlorophenyl)(hydroxy)methyl]-2-thienyl}carbonyl)pyrimidin-4-yl]amino}-2-hydroxycyclopentyl]methyl sulfamate or [(1R,2S,4R)-4-{[5-({4-[(S)-(3-chlorophenyl)(hydroxy)methyl]-2-thienyl}carbonyl)pyrimidin-4-yl]amino}-2-hydroxycyclopentyl]methyl sulfamate] | 100 | < 10 |  |  | 
